Consider 11 molecules from PubChem BioAssay (NCI).

Test systems include NCI-H23 lung; TK-10 renal; MDA-MB-435; A498 renal; PC-3 prostate; BT-549 breast; MDA-MB-231 breast; K-562 leukemia; UACC-257 melanoma; U251 CNS.
Holding throughout (assay): inhibition of tumour cell growth, NCI panel, 48 h

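Grown in 96-well plates, cells were treated for 48 hours with each compound at five concentrations. Insufficient inhibition: endpoint recorded as highest concentration tested. At the TGI there is no net growth.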

For the molecule `Cc1ccccc1OC(C)C(=O)NN1C(=O)CC(=O)N(c2ccc(Cl)cc2)C1=S` (stereo not given), the TGI in the assay on NCI-H23 lung was over 100 µM; in the assay with TK-10 renal, over 100 µM; with MDA-MB-435, over 100 µM; with A498 renal it was 64.6 µM; in the assay with PC-3 prostate, over 100 µM; in the assay with BT-549 breast it was over 100 µM. Also, the TGI in the assay with MDA-MB-231 breast, with K-562 leukemia, in the assay with UACC-257 melanoma and in the assay on U251 CNS was over 100 µM throughout.

As for `COC(=O)NN(C(=O)OC)c1c(-c2ccccc2)nc(SC)n1N`, the TGI in the assay on NCI-H23 lung, in the assay with TK-10 renal, with MDA-MB-435, in the assay on A498 renal, with PC-3 prostate and in the assay with BT-549 breast was over 100 µM throughout. For the same molecule, the TGI with MDA-MB-231 breast, in the assay on K-562 leukemia, in the assay on UACC-257 melanoma and in the assay on U251 CNS was over 100 µM throughout.

Take `Cc1ccc(S(=O)(=O)Oc2cc(N)c3c(n2)CCC3)cc1`: the TGI in the assay on NCI-H23 lung, with TK-10 renal, in the assay on MDA-MB-435, with A498 renal, in the assay with PC-3 prostate and in the assay on BT-549 breast was over 100 µM each time. The TGI in the assay on MDA-MB-231 breast, in the assay with K-562 leukemia, in the assay with UACC-257 melanoma and with U251 CNS was over 100 µM throughout.

As for `C=C(Cl)/C(=C\Cl)CCC(Br)C(C)C` (stereo not given), the TGI with NCI-H23 lung, in the assay with TK-10 renal, in the assay with MDA-MB-435, in the assay with A498 renal, with PC-3 prostate and with BT-549 breast was over 100 µM each time. For the same molecule, the TGI is 45.4 µM in the assay with MDA-MB-231 breast, over 100 µM with K-562 leukemia, over 100 µM in the assay on UACC-257 melanoma and over 100 µM in the assay with U251 CNS.

As for `O=c1cc(/C=C/c2ccc(O)c(O)c2)oc(/C=C/c2ccc(O)c(O)c2)c1`, the TGI with NCI-H23 lung stood at 25.1 µM; with TK-10 renal, 19.4 µM; in the assay with MDA-MB-435, 11.8 µM; in the assay with A498 renal, 14.4 µM; in the assay on PC-3 prostate, 17.6 µM; in the assay on BT-549 breast, 15.2 µM. Moreover, the TGI was 21.6 µM in the assay on MDA-MB-231 breast, over 20.7 µM in the assay with K-562 leukemia, 17.8 µM with UACC-257 melanoma and 9.57 µM in the assay with U251 CNS.

Turning to `O=C(CN1CCCCC1)CC(O)(C(F)(F)F)C(F)(F)F`, the TGI in the assay on NCI-H23 lung, with TK-10 renal, with MDA-MB-435, in the assay on A498 renal, in the assay with PC-3 prostate and in the assay with BT-549 breast was over 100 µM in each case. The TGI in the assay on MDA-MB-231 breast, in the assay on K-562 leukemia, in the assay on UACC-257 melanoma and with U251 CNS was over 100 µM throughout.

As to `O=C1/C(=C/c2ccccc2S)N=C(c2ccccc2)N1c1nc2ccc(Sc3ccccc3)cc2[nH]1`, the TGI in the assay with NCI-H23 lung was over 100 µM; in the assay on TK-10 renal, 70.3 µM; with MDA-MB-435, 29.7 µM; with A498 renal it was over 100 µM; in the assay on PC-3 prostate, over 100 µM; in the assay on BT-549 breast, 61.1 µM. Moreover, the TGI was 71.6 µM with MDA-MB-231 breast, over 100 µM with K-562 leukemia, 69.2 µM in the assay with UACC-257 melanoma and 51.7 µM with U251 CNS.

Consider `CCCCOC(C)(C)/C=C/C(O)[C@](C)(O)[C@H]1[C@H](O)C[C@@]2(C)[C@@H]3CCc4c(cc(OC5OC(CO)C(O)C(O)C5O)c(O)c4C)C3(C)C(=O)C[C@]12C` (stereo not given in full), for which the TGI in the assay on NCI-H23 lung, with TK-10 renal, in the assay on MDA-MB-435, in the assay with A498 renal, in the assay on PC-3 prostate and with BT-549 breast was over 100 µM each time. Moreover, the TGI in the assay on MDA-MB-231 breast, with K-562 leukemia, in the assay on UACC-257 melanoma and with U251 CNS was over 100 µM throughout.

For the molecule `CCOC1CC(=O)c2c(Br)sc(Br)c21` (stereo not given), the TGI amounted to 37.4 µM in the assay on NCI-H23 lung; 46.4 µM with TK-10 renal; 33.6 µM in the assay on MDA-MB-435; 83.3 µM in the assay with A498 renal; 47.2 µM in the assay on PC-3 prostate; 66.1 µM in the assay on BT-549 breast. In addition, the TGI in the assay with MDA-MB-231 breast was 35.9 µM; with K-562 leukemia it was 41.5 µM; in the assay on UACC-257 melanoma, 32.2 µM; in the assay with U251 CNS it was 33.1 µM.

As for `Cc1cc(C)c2c(=O)n(CN3CC4Nc5ccccc5C4C3)sc2n1` (stereo not given), the TGI in the assay on NCI-H23 lung was 47.6 µM; in the assay with TK-10 renal it was 35.8 µM; in the assay on MDA-MB-435, 42.2 µM; in the assay on A498 renal, over 100 µM; with PC-3 prostate, 50.6 µM; in the assay with BT-549 breast, over 100 µM. Moreover, the TGI with MDA-MB-231 breast was 37.5 µM; in the assay on K-562 leukemia, 92.7 µM; in the assay with UACC-257 melanoma, 32.2 µM; with U251 CNS it was over 100 µM.

Regarding `CCCCn1c2c(n(CCCC)c1=S)-c1c(n(CCCC)c(=S)n1CCCC)S[Se][Se]S2`, the TGI in the assay on NCI-H23 lung is 41.5 µM; in the assay on TK-10 renal, 30.5 µM; with MDA-MB-435, 39.1 µM; in the assay with A498 renal it was over 100 µM; with PC-3 prostate, over 34.2 µM; with BT-549 breast, 35.5 µM. Also, the TGI with MDA-MB-231 breast is 7.59 µM; with K-562 leukemia it was over 100 µM; in the assay with UACC-257 melanoma, 30.8 µM; with U251 CNS, 16.9 µM.
